Assay results: BindingDB's records for doi:10.1124/jpet.103.059675 (Wyeth Research, 2004)

Tests used:
[1] = molecular target: T1, A disintegrin and metalloproteinase with thrombospondin motifs 4 (Homo sapiens, UniProt O75173); test: Aggrecanase-1 Inhibition Assay; conditions: pH 7.5; 37 °C
T1 sequence (O75173 whole entry): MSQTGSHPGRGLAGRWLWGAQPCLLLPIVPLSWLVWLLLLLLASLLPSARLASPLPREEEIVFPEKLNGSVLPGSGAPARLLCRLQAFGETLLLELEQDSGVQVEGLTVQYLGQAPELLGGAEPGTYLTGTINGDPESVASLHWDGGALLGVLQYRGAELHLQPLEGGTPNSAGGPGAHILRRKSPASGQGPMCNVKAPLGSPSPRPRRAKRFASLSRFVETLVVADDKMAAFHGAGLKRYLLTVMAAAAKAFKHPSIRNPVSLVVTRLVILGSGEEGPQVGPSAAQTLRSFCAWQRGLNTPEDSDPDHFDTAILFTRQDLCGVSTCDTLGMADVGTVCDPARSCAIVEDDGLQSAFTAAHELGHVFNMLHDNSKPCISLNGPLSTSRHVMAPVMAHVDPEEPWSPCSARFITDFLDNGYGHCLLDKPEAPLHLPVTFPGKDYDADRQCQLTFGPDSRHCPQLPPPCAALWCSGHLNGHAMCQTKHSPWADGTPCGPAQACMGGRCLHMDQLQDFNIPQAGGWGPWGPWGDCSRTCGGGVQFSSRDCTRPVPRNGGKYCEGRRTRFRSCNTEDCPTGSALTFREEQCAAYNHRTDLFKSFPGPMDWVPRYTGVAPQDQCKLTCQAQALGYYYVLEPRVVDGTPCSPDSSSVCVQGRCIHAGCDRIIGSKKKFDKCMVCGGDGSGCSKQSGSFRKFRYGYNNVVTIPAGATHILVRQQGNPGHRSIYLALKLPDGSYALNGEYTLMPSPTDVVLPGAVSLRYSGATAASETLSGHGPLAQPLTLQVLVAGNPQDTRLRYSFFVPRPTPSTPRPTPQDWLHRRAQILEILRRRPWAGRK
Protocol: The recombinant Agg-1 proteins pretreated with the various concentrations of the compound for 10 to 15 min. The reaction was initiated by addition of the WAAG-3R substrate at a final concentration of 25 uM. The reaction is monitored at excitation of 340 nm and emission of 420 nm over a period of 30 min in a fluorimeter (GeminiXS; Molecular Devices Corp., Sunnyvale, CA).

Matrilysin = molecular target: T2, Matrilysin (Homo sapiens, UniProt P09237); test: MMP Inhibition Assay; conditions: pH 7.4; 22 °C
T2 sequence (P09237 whole entry): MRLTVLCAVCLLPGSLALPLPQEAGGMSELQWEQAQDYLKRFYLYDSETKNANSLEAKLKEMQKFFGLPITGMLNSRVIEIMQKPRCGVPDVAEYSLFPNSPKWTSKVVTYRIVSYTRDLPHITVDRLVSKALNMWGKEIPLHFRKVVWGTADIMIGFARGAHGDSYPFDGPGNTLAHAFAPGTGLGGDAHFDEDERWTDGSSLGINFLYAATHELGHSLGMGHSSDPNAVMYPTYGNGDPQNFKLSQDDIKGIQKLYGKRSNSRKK
Protocol: (§1) A continuous assay was used in which the substrate is a synthetic peptide containing a fluorescent group (7-methoxycoumarin), which is quenched by energy transfer to a 2,4-dinitrophenyl group. […] The enzymatic reactions were initiated by adding the substrate, and the initial rate of the cleavage reaction was determined immediately after substrate addition.

[2] = molecular target: Matrix metalloproteinase-14 (Homo sapiens, UniProt P50281); test: MMP Inhibition Assay; conditions: pH 7.4; 22 °C
Protocol: as §1

Interstitial collagenase = molecular target: T3, Interstitial collagenase (Homo sapiens, UniProt P03956); test: MMP Inhibition Assay; conditions: pH 7.4; 22 °C
T3 sequence (P03956 whole entry): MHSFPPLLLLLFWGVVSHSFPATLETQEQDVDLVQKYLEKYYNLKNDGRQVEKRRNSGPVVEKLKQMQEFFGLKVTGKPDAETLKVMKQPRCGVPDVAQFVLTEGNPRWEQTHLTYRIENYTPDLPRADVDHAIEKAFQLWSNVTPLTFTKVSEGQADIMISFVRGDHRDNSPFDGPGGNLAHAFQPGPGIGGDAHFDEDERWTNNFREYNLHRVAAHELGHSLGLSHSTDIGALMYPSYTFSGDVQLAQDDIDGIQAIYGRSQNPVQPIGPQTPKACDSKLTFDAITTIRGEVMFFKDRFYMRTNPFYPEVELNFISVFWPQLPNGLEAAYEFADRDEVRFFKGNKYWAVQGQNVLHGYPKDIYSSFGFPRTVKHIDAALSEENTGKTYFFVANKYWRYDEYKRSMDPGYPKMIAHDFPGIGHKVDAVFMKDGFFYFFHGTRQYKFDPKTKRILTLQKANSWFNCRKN
Protocol: as §1

[3] = molecular target: 72 kDa type IV collagenase (Homo sapiens, UniProt P08253); test: MMP Inhibition Assay; conditions: pH 7.4; 22 °C
Protocol: as §1

[4] = molecular target: Disintegrin and metalloproteinase domain-containing protein 17 (Homo sapiens, UniProt P78536); test: TACE Inhibition Assay; conditions: pH 7.4; 22 °C
Protocol: Compounds were tested for their ability to inhibit the cleavage of the substrate by the purified enzyme in a fluorescence-based fluorescence resonance energy transfer (FRET) assay. The human TACE protein was pretreated with the inhibitors for 10 min at room temperature. The reaction was initiated by the addition of pro-TNF-alpha peptide to the TACE protein, and the increase in fluorescence was monitored at excitation of 320 nm and emission of 420 nm over a period of 10 min. Under this assay condition, the IC50 value is very close to the Ki value.

Sequence of 72 kDa type IV collagenase (P08253 whole entry): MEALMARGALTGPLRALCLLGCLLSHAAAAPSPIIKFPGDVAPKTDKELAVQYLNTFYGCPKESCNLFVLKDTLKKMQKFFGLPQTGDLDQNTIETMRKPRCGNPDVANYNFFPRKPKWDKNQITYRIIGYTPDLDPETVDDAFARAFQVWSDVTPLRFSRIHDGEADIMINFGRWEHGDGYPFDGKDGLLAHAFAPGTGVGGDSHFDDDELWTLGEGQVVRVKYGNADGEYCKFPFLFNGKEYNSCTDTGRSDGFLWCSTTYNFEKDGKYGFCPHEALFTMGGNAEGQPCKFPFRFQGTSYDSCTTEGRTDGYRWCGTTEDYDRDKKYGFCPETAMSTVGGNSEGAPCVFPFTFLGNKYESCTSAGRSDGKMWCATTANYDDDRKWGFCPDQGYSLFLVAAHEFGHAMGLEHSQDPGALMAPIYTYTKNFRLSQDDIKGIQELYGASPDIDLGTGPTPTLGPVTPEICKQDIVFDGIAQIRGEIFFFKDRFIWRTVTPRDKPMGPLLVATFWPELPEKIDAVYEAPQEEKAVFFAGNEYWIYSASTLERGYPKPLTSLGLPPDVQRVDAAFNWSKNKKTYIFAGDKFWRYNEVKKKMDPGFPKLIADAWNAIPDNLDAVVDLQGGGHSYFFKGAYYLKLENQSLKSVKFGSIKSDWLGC
Sequence of Disintegrin and metalloproteinase domain-containing protein 17 (P78536 whole entry, the tested form may be a part): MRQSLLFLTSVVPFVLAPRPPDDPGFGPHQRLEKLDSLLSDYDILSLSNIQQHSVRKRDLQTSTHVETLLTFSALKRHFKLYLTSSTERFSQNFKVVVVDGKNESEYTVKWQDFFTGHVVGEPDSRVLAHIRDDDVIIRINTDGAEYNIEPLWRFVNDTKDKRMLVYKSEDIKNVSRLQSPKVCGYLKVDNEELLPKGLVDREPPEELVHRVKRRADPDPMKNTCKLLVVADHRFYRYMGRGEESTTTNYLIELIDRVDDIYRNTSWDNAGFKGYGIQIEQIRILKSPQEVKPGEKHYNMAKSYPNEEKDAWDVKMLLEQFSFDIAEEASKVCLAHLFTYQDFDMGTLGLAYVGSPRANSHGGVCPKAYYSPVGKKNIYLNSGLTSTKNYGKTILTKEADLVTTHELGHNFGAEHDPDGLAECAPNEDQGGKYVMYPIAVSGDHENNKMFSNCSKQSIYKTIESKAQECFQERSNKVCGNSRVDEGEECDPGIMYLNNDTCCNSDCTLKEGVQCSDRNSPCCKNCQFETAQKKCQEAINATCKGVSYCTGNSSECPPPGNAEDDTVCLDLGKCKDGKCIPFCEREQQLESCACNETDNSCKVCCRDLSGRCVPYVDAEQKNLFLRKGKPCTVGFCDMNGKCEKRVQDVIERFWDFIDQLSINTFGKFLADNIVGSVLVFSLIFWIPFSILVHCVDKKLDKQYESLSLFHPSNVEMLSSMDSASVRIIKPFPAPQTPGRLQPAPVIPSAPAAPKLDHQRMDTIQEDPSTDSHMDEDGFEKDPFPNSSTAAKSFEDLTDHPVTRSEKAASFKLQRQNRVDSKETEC

IC50 [1]: 100 nM
IC50 (Matrilysin): 26 nM
IC50 [2]: 26 nM
IC50 (Interstitial collagenase): 6.6 nM
IC50 [3]: 4.7 nM
IC50 [4]: 8.4 nM
SMILES: CC#CCOc1ccc(S(=O)(=O)N2CCSC(C)(C)[C@@H]2C(=O)NO)cc1 [(3S)-4-{[4-(but-2-yn-1-yloxy)benzene]sulfonyl}-N-hydroxy-2,2-dimethylthiomorpholine-3-carboxamide]
